{
  "source": "ChEMBL document CHEMBL5214887",
  "about": "“Dispirotripiperazine-core compounds, their biological activity with a focus on broad antiviral property, and perspectives in drug design (mini-review)” (Eur J Med Chem, 2021)",
  "key": {"[1]": {"experiment": "[…] in herpetic encephalitis mouse model assessed as reduction in mortality at 250 mg/kg,po bid for 5 days", "assay_type": "organism-based", "parameters": "scale not given: the % may be the effect or the level left", "settings": "in vivo, 120 h, time 5 day"}, "Human alphaherpesvirus 1 [2]": {"tested_on": "Human alphaherpesvirus 1", "experiment": "Antiviral activity against HSV-1 assessed as viral growth inhibition", "assay_type": "functional, organism-based"}, "[3]": {"tested_on": "Human immunodeficiency virus", "experiment": "Antiviral activity against HIV assessed as viral growth inhibition", "assay_type": "functional, organism-based", "settings": "Human immunodeficiency virus 1"}, "[4]": {"tested_on": "Respiratory syncytial virus", "experiment": "Antiviral activity against RSV assessed as viral growth inhibition", "assay_type": "functional, organism-based", "settings": "human respiratory syncytial virus"}, "[5]": {"experiment": "Toxicity in mouse assessed as lethal dose at ip as single dose", "assay_type": "organism-based", "settings": "in vivo"}, "Lyssavirus rabies": {"tested_on": "Lyssavirus rabies", "experiment": "Antiviral activity against radiolabeled Rabies virus infected in bovine MDBK cell at 80 ug/ml incubated for 4 hrs by attachment assay based liquid scintillation counting analysis", "assay_type": "functional", "settings": "dose 80 µg/ml"}, "[6]": {"tested_on": "Human papillomavirus type 16", "experiment": "Antiviral activity against HPV16 infected in human HEK293T cells assessed as viral growth inhibition incubated for 72 hrs by green fluorescent protein based method", "assay_type": "functional, organism-based", "settings": "Human papillomavirus 16, HEK-293T"}, "[7]": {"experiment": "Antiviral activity against HPV18 infected in human HEK293T cells assessed as viral growth inhibition incubated for 72 hrs by green fluorescent protein based method", "assay_type": "functional, cell-based", "settings": "human papillomavirus 18, HEK-293T"}, "Deltapapillomavirus 4": {"tested_on": "Deltapapillomavirus 4", "experiment": "Antiviral activity against BPV1 infected in human HEK293T cells assessed as viral growth inhibition incubated for 72 hrs by green fluorescent protein based method", "assay_type": "functional, organism-based", "settings": "Deltapapillomavirus 4, HEK-293T"}, "Human betaherpesvirus 5 [8]": {"tested_on": "Human betaherpesvirus 5", "experiment": "Antiviral activity against ganciclovir resistant HCMV infected in human HELF cells assessed as viral growth inhibition incubated for 8 days", "assay_type": "functional, organism-based", "settings": "Human betaherpesvirus 5, HELF, 192 h"}, "Human betaherpesvirus 5 [9]": {"tested_on": "Human betaherpesvirus 5", "experiment": "Antiviral activity against ganciclovir sensitive HCMV infected in human HELF cells assessed as viral growth inhibition incubated for 8 days", "assay_type": "functional, organism-based", "settings": "Human betaherpesvirus 5, HELF, 192 h"}, "Human alphaherpesvirus 1 [10]": {"tested_on": "Human alphaherpesvirus 1", "experiment": "Antiviral activity against acyclovir resistant HSV-1 infected in African green monkey GMK-AH-1 cells assessed as viral growth inhibition incubated for 73 hrs", "assay_type": "functional, organism-based", "settings": "Human alphaherpesvirus 1, 73 h"}, "Human alphaherpesvirus 2": {"tested_on": "Human alphaherpesvirus 2", "experiment": "Antiviral activity against HSV-2 infected in African green monkey GMK-AH-1 cells assessed as viral growth inhibition incubated for 73 hrs", "assay_type": "functional, organism-based", "settings": "Human alphaherpesvirus 2, 73 h"}, "[11]": {"tested_on": "Human immunodeficiency virus 1", "experiment": "Antiviral activity against HIV-1 assessed as viral growth inhibition", "assay_type": "functional, organism-based"}, "Human alphaherpesvirus 1 [12]": {"tested_on": "Human alphaherpesvirus 1", "experiment": "Antiviral activity against HSV-1 infected in African green monkey GMK-AH-1 cells assessed as viral growth inhibition incubated for 73 hrs by crystal violet staining assay", "assay_type": "functional, organism-based", "settings": "Human alphaherpesvirus 1, 73 h"}},
  "data": [
    {"compound": "O=C(CCCl)N1CC[N+]2(CC1)CC[N+]1(CCN(C(=O)CCCl)CC1)CC2.[Cl-].[Cl-]", "values": [
      {"measurement": "Activity", "setting": "[1]", "result": 35, "unit": "%"}
    ]},
    {"compound": "Cc1nc(N2CCC[N+]3(CC2)CC[N+]2(CCCNCC2)CC3)c([N+](=O)[O-])c(N2CCC[N+]3(CC2)CC[N+]2(CCCNCC2)CC3)n1", "note": "(configuration not stated)", "values": [
      {"measurement": "IC50", "setting": "Human alphaherpesvirus 1 [2]", "result": 1.97, "unit": "µM"},
      {"measurement": "IC50", "setting": "[3]", "result": 4, "unit": "µM"},
      {"measurement": "IC50", "setting": "[4]", "result": "> 100", "unit": "µM"}
    ]},
    {"compound": "OC(CCl)CN1CC[N+]2(CC1)CC[N+]1(CCN(CC(O)CCl)CC1)CC2.[Cl-].[Cl-]", "note": "(configuration not stated) [PROSPIDIUM CHLORIDE]", "values": [
      {"measurement": "IC50", "setting": "Human alphaherpesvirus 1 [2]", "result": 62.5, "unit": "µM"},
      {"measurement": "LD50", "setting": "[5]", "result": 100, "unit": "mg/kg"}
    ]},
    {"compound": "Cc1nc(N2CC[N+]3(CCC[N+]4(CCNCC4)CC3)CC2)c([N+](=O)[O-])c(N2CC[N+]3(CCC[N+]4(CCNCC4)CC3)CC2)n1", "values": [
      {"measurement": "IC50", "setting": "Human alphaherpesvirus 1 [2]", "result": 1.12, "unit": "µM"}
    ]},
    {"compound": "Cl.Cl.[O-][n+]1onc2ncnc(N3CC[N+]4(CC3)CC[N+]3(CCN(c5ncnc6no[n+]([O-])c56)CC3)CC4)c21", "values": [
      {"measurement": "Activity", "setting": "Lyssavirus rabies", "result": 95, "unit": "%"},
      {"measurement": "IC50", "setting": "[6]", "result": 1.4, "unit": "µM"},
      {"measurement": "IC50", "setting": "[7]", "result": 0.7, "unit": "µM"},
      {"measurement": "IC50", "setting": "Deltapapillomavirus 4", "result": 2.6, "unit": "µM"},
      {"measurement": "IC50", "setting": "Human betaherpesvirus 5 [8]", "result": 0.15, "unit": "µM"},
      {"measurement": "IC50", "setting": "Human betaherpesvirus 5 [9]", "result": 0.15, "unit": "µM"},
      {"measurement": "IC50", "setting": "Human alphaherpesvirus 1 [10]", "result": 8.1, "unit": "µM"},
      {"measurement": "IC50", "setting": "Human alphaherpesvirus 2", "result": 10.2, "unit": "µM"},
      {"measurement": "IC50", "setting": "[3]", "result": 1.4, "unit": "µM"},
      {"measurement": "IC50", "setting": "[11]", "result": 150, "unit": "µM"},
      {"measurement": "IC50", "setting": "[4]", "result": 7.5, "unit": "µM"}
    ]},
    {"compound": "O=C(CCBr)N1CC[N+]2(CC1)CC[N+]1(CCN(C(=O)CCBr)CC1)CC2.[Cl-].[Cl-]", "note": "[DIBROSPIDIUM CHLORIDE]", "values": [
      {"measurement": "IC50", "setting": "Human alphaherpesvirus 1 [2]", "result": 66.1, "unit": "µM"},
      {"measurement": "LD50", "setting": "[5]", "result": 1920, "unit": "mg/kg"},
      {"measurement": "Activity", "setting": "[1]", "result": 35, "unit": "%"}
    ]},
    {"compound": "Cc1nc(N2CC[N+]3(CC2)CC[N+]2(CCNCC2)CC3)c([N+](=O)[O-])c(N2CC[N+]3(CC2)CC[N+]2(CCNCC2)CC3)n1", "values": [
      {"measurement": "IC50", "setting": "Human alphaherpesvirus 1 [12]", "result": 1.48, "unit": "µM"}
    ]}
  ]
}
